Data reported in publication PMC4515242, “ESR and X-ray Structure Investigations on the Binding and Mechanism of Inhibition of the Native State of Myeloperoxidase with Low Molecular Weight Fragments” (Applied Magnetic Resonance, 2015).

Columns and labels:
Human Myeloperoxidase = biological target: T1, Human Myeloperoxidase (Homo sapiens, UniProt P05164); assay: X-ray co-crystal growth by soaking MPO crystals with inhibitor; details: crystals soaked with 50 mM inhibitor
T1 construct: purchased Lee Biosciences 426-10
T1 sequence (P05164 49-745): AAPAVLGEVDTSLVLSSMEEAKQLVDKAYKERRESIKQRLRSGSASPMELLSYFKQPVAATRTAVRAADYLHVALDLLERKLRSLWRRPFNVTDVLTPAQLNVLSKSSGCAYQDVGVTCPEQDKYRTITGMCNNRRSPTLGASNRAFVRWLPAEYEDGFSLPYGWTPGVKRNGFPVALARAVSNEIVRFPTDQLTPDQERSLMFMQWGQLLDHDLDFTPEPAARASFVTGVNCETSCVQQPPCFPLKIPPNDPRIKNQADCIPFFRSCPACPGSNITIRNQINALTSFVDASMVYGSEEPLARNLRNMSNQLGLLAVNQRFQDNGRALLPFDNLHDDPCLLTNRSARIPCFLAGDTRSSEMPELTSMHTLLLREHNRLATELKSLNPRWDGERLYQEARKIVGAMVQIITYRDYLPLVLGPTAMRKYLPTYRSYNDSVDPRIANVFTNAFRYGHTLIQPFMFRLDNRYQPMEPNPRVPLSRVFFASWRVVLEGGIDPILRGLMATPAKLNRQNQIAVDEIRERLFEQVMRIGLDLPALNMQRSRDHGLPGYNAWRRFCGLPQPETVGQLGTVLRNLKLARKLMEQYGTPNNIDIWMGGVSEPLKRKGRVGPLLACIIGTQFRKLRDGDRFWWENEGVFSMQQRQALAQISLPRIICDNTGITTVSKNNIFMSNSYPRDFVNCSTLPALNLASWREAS
Procedure: Human Myeloperoxidase and co-crystals of MPO were crystallized and analyzed using methods similar to those described by Davey and Fenna. Briefly, hanging drops of 25 mg/mL MPO, 25 mM sodium acetate pH 5.0, 50 mM NaCl, 50 mM ammonium sulfate, 2 mM calcium chloride, and 3-10 % polyethylene glycol 8000 were set up at 21 °C over reservoir solutions containing 300 mM sodium chloride. Crystals of the space group P21 and having two MPO subunits per asymmetric unit grew with the aid of micro-seeding as very thin plates having a brownish orange tinge. Crystals were soaked with inhibitor compounds at a concentration of 50 mM, in a stabilizing buffer containing 18 % polyethylene glycol 8000, 56 mM ammonium sulfate, 2.2 mM calcium acetate, and 56 mM HEPES pH 7.0. Co-crystals were cryo-protected in a stabilizing buffer containing 22.2 % methylpentanediol prior to flash cooling in liquid nitrogen.
Diffraction data were collected at 100 K using Synchrotron beam line 31ID at the Advanced Photon Source (Argonne National Laboratory) and were integrated using MOSFLM v.6.2.6 [18]. […] Inhibitor binding to the MPO heme group was indicated by appropriately shaped peaks in the Fo–Fc electron density maps. The inhibitor was included in the model, and iterative cycles of manual model building with COOT [20] and restrained refinement with REFMAC v5.2.0019 [21] were used to complete the overall structure. Figures of the crystal structure were generated using PYMOL (www.pymol.org). […] The higher B-factors for the inhibitor molecules could be attributed to inhibitor occupancies of less than 1.0 or to higher degrees of thermal motion associated with the inhibitors. Lower than expected electron density peak heights were also observed for the Cl atom in the inhibitors, which could be due to the radiation damage to this X-Ray sensitive group.

[1] = biological target: T2, native state (Fe3+) of hMPO (Homo sapiens, UniProt P05164); assay: Low temperature ESR binding assay (binding-induced g shift, Rrelative); details: for ESR Rrelative: Rrelative = (Rbound - Rnative)/Rnative x 100, inhibitor:MPO 40:1, pH 6, 6 % DMSO, 4-7 K; for Δg: absolute difference between g X and g Y of the bound complex; for ESR Binding: class by Rrelative, inhibitor:MPO 40:1; for g X / g Y: electronic g value of the bound complex, X-band ESR, 5 K
T2 construct: purchased Athens Research and Technology
T2 sequence (P05164 49-745): T1 sequence (P05164 49-745)
Procedure: After 5-min. incubation at room temperature, the entire reaction mixture (0.235 mL) was transferred to the ESR quartz tubes. To avoid the quartz tubes breaking during the rapid freezing cycles, the ESR tubes were initially frozen in a 1:1 Isopentane-Cyclohexane mixture cooled with dry ice powder and then transferred to a liquid nitrogen Dewar to be queued up for ESR measurements. The reaction mixture contained a final concentration of 6 % DMSO. ESR spectra were recorded on a Varian E-12, X-band spectrometer equipped with an Air Products liquid helium cryostat.
The experimental g values correspond to the spin Hamiltonian pertinent to the high-spin ion (S = 5/2).1 H=DSZ2-1/3SS+1+E/DSX2-SY2+βgeS.Be where D and E are the eigen values of the axial and rhombic field components, i.e., the symmetry of the ligand (inhibitors approaching heme in this case). […] When the heme lodges inside the protein, the protein side chain amino acid (histidine) approaches the heme vicinity and either binds (axially) directly to the iron in the heme pocket. […] Thus, the fifth ligand leads to lower (rhombic) symmetries causing the signal at g ~ 6 to split. This non-tetragonal splitting of the heme is quantitated by the relationship,2 E/D=Δg/48 where ∆g represents the absolute difference between the gX and gY components. Alternatively, making use of the fact that E/D maximum value = 1/3, one can simplify the above expression as a percentage of rhombicity, R:3 R=Δg/16×100%. […] To rank-order molecules in terms of their ability to distort the heme pocket/plane environment, we used a ratio of total distortion in the bound complex w.r.t. distortion seen in the native unbound enzyme:4 Rrelative=Rbound-Rnative/Rnative×100.
From the relative rhombicities of the bound and unbound complex, a measure of the strength of binding could be derived. […] For the ease of classification, we have empirically defined those with 5 ≤ Rrelative ≥ 2 as weak binding; 15 ≥ Rrelative ≥ 10 as moderate binding; and 25 ≥ Rrelative ≥ 15 as strong binding (Table 2).

[2] = ABTS radical cation decolorization assay to measure the antioxidant capacity; details: % inhibition at 20 uM single dose, read at 734 nm after 30 min
Procedure: The assay was modeled after the published procedure. Briefly, ABTS radical cation was prepared by adding 100 μl of 70 mM K2S2O8 to 10 ml ABTS, followed by vortexing and incubating at 37 °C water bath for 2 h. […] Trolox standards are dissolved in water. The reaction is started by adding the ABTS radical cation solution to the MPO inhibitors or Trolox (final concentration 20 μM). The plate is gently shaken for 1 min and then set on a bench top at room temperature for 30 min.

hMPO = biological target: T3, hMPO (Homo sapiens, UniProt P05164); assay: Peroxidase inhibition assay: ESR of hMPO exposed to H2O2 with and without inhibitor; format: biochemical; details: inhibitor added before H2O2 (555 μM); inhibitor:MPO 40:1, in DMSO
T3 construct: purchased Biodesign A31804H
T3 sequence (P05164 49-745): T1 sequence (P05164 49-745)
Procedure: Hydrogen peroxide (30 %, v/v; 9.71 M) is used with different dilutions in ice-cold deionized water. MPO at 50 μl of 20.8 μM (4.6 μM final concentration) is incubated with different concentrations of H2O2 in the absence and in the presence of inhibitors (inhibitor to MPO concentration is 40:1) for 1 min and rapidly frozen at 77 K. The inhibitors are added to MPO, incubated for 5 min prior to H2O2 addition in these reactions.

[3] = ESR, Inhibitor:MPO ratio 40:1, DMSO 6 %

| X ray Cocrystal result (Human Myeloperoxidase) | ESR Rrelative [1] | Δg [1] | g X [1] | g Y [1] | proportion of the enzyme bound [1, 3] [%] | proportion of the enzyme unbound [1, 3] [%] | SMILES | ESR Binding [1] | % Anti oxidant potential [2] [%] | prevention of peroxide-induced ESR changes (decay of g X and g Y, growth of g ~ 6) (hMPO) |
| --- | --- | --- | --- | --- | --- | --- | --- | --- | --- | --- |
| Yes | 14.1 | 2.09 | 6.917 | 4.827 |  |  | O=C(O)c1n[nH]c(-c2ccccc2)c1O [LSN87637] | Moderate (15 ≥ Rrelative ≥ 10 as moderate binding) | 65.9 |  |
| Yes | 24.2 | 2.256 | 6.995 | 4.739 | 70 | 30 | O=C(O)c1nn(-c2ccccc2)cc1O [LSN17948] | Strong (25 ≥ Rrelative ≥ 15 as strong binding) | 42.1 | The spectrum is unchanged and no g intermediate signal is seen |
| Yes | 29.1 | 2.308 | 7.0681 | 4.7601 |  |  | O=C(O)c1nn(-c2cccc3ccccc23)cc1O [LSN2944556] | Strong (25 ≥ Rrelative ≥ 15 as strong binding) | 67.6 |  |
